The NIST ThermoML archive (doi:10.1021/je060485s)

Legend:
[1] = xn = mol fraction of the nth substance listed; settings: for surface tension liquid-gas: Pendant drop shape; for mass density: 101 kPa, Liquid
[2] = for surface tension liquid-gas: Pendant drop shape; for mass density: 101 kPa, Liquid

Cc1ccc(C)cc1 [1,4-dimethylbenzene] + CCCOC(C)=O
[1], x2 = 0
Settings | mass density [kg/m3] | surface tension liquid-gas [mN/m]
298.15 K | 856.92 | 28.08
303.15 K | 852.58 | 27.47
308.15 K | 848.26 | 27.13

CCc1ccccc1 [ethylbenzene]
[2]
Settings | mass density [kg/m3] | surface tension liquid-gas [mN/m]
298.15 K | 862.25 | 28.79
303.15 K | 857.88 | 28.29
308.15 K | 853.43 | 27.85

CCc1ccccc1 [ethylbenzene] + CCCOC(C)=O
[1], x2 = 0
Settings | mass density [kg/m3] | surface tension liquid-gas [mN/m]
298.15 K | 862.25 | 28.79
303.15 K | 857.88 | 28.29
308.15 K | 853.43 | 27.85

CCCOC(C)=O [propyl ethanoate]
[2]
Settings | mass density [kg/m3] | surface tension liquid-gas [mN/m]
298.15 K | 882.54 | 23.91
303.15 K | 876.99 | 23.46
308.15 K | 871.35 | 22.79

CCCOC(C)=O [propyl ethanoate] + CCc1ccccc1
[1]
Settings | mass density [kg/m3] | surface tension liquid-gas [mN/m]
298.15 K, x1 = 0.1005 | 864.23 | 28.15
298.15 K, x1 = 0.1994 | 866.18 | 27.51
298.15 K, x1 = 0.3002 | 868.16 | 26.89
298.15 K, x1 = 0.4005 | 870.14 | 26.35
298.15 K, x1 = 0.5 | 872.12 | 25.91
298.15 K, x1 = 0.6002 | 874.14 | 25.5
298.15 K, x1 = 0.6997 | 876.17 | 25.1
298.15 K, x1 = 0.7998 | 878.24 | 24.7
298.15 K, x1 = 0.9007 | 880.38 | 24.3
298.15 K, x1 = 1 | 882.54 | 23.91
303.15 K, x1 = 0.1001 | 859.75 | 27.7
303.15 K, x1 = 0.1995 | 861.59 | 27.1
303.15 K, x1 = 0.2995 | 863.45 | 26.49
303.15 K, x1 = 0.4 | 865.32 | 25.95
303.15 K, x1 = 0.5004 | 867.2 | 25.49
303.15 K, x1 = 0.5995 | 869.08 | 25.07
303.15 K, x1 = 0.6999 | 871 | 24.65
303.15 K, x1 = 0.8005 | 872.96 | 24.24
303.15 K, x1 = 0.9007 | 874.96 | 23.85
303.15 K, x1 = 1 | 876.99 | 23.46
308.15 K, x1 = 0.1 | 855.19 | 27.24
308.15 K, x1 = 0.2 | 856.93 | 26.62
308.15 K, x1 = 0.2999 | 858.67 | 26.01
308.15 K, x1 = 0.3997 | 860.41 | 25.46
308.15 K, x1 = 0.5003 | 862.18 | 24.97
308.15 K, x1 = 0.5999 | 863.95 | 24.52
308.15 K, x1 = 0.7001 | 865.74 | 24.08
308.15 K, x1 = 0.8007 | 867.58 | 23.65
308.15 K, x1 = 0.9003 | 869.44 | 23.22
308.15 K, x1 = 1 | 871.35 | 22.79
